Assays:
Periplaneta americana [1] = experiment: Insecticidal activity against Periplaneta americana (American cockroach) assessed as killing compound injected into abdomen of cockroach after 24 hr measured per insect; format: functional
Periplaneta americana [2] = experiment: (§1) Insecticidal activity against Periplaneta americana (American cockroach) assessed as killing compound injected into abdomen of cockroach after 24 hr in presence of 50 ug piperonyl butoxide oxidative metabolism inhibitor and 50 ug propargyl propyl benzenephosphonate inhibitor of hydrolytic measured per insect relative to compound alone; format: functional
Periplaneta americana [3] = experiment: as §1, with “insect” for “insect relative to compound alone”; format: functional
Periplaneta americana [4] = experiment: (§2) Insecticidal activity against Periplaneta americana (American cockroach) assessed as killing compound injected into abdomen of cockroach after 24 hr in presence of 50 ug propargyl propyl benzenephosphonate inhibitor of hydrolytic metabolism of tetramethrin pyrethroid measured per insect; format: functional
Periplaneta americana [5] = experiment: Insecticidal activity against Periplaneta americana (American cockroach) assessed as killing compound injected into abdomen of cockroach after 24 hr in presence of 50 ug piperonyl butoxide oxidative metabolism inhibitor measured per insect; format: functional
Periplaneta americana [6] = experiment: Insecticidal activity against Periplaneta americana (American cockroach) assessed as changes in frequency of firing in nerve cords in nerve preparation measured for every 30 secs immediately after treatment at 3x10'-6 M by electrophysiological method; format: functional, organism-based; conditions: TDE = time-dependent effect
Periplaneta americana [7] = experiment: Insecticidal activity against Periplaneta americana (American cockroach) assessed as changes in frequency of firing in nerve cords in nerve preparation measured for every 30 secs immediately after treatment at 9x10'-7 M by electrophysiological method; format: functional; conditions: TDE = time-dependent effect
[8] = target: T1, Nicotinic acetylcholine receptor alpha 5 subunit (Musca domestica, UniProt A9XFY4); experiment: Displacement of [3H]imidacloprid from Musca domestica (house fly)-head membrane nAChR
T1 sequence (A9XFY4 whole entry): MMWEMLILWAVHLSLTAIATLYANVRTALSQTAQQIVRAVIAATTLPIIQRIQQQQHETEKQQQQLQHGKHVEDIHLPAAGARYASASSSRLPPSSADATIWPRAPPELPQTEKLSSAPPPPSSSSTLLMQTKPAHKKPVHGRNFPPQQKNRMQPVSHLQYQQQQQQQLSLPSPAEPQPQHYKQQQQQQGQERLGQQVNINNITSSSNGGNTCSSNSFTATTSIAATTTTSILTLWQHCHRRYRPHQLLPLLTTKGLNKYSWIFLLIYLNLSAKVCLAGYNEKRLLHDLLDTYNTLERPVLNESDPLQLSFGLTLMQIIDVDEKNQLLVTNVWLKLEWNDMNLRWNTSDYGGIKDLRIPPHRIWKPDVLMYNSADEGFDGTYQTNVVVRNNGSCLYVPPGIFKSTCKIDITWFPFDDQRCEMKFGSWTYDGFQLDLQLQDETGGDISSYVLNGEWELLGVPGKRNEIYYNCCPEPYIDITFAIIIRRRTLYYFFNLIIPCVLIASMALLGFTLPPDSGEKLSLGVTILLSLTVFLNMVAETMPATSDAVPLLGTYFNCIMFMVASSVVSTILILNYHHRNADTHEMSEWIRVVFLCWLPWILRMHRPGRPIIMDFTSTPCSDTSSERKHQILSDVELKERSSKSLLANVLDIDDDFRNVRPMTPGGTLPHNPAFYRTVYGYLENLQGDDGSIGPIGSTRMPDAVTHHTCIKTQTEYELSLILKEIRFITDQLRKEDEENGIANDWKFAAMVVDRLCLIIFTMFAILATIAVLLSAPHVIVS

Periplaneta americana [9] = experiment: as §2, with “insect relative to compound alone” for “insect”; format: functional
Periplaneta americana [10] = experiment: Insecticidal activity against Periplaneta americana (American cockroach) assessed as killing compound injected into abdomen of cockroach after 24 hr in presence of 50 ug piperonyl butoxide oxidative metabolism inhibitor measured per insect relative to compound alone; format: functional
[11] = target: T2, Nicotinic acetylcholine receptor alpha 5 subunit (Musca domestica) (UniProt A9XFY4); experiment: Displacement of [3H]imidacloprid from Musca domestica (house fly)-head membrane nAChR relative to N,N'-(3,3'-(hexane-1,6-diyl)bis(1-((6-chloropyridin-3-yl)methyl)imidazolidin-3-yl-2-ylidene))dinitramide
T2 sequence (whole entry): T1 sequence (A9XFY4 whole entry)

Compound	MLD (Periplaneta americana [1]) [nmol]	Ratio (Periplaneta americana [2])	MLD (Periplaneta americana [3]) [nmol]	MLD (Periplaneta americana [4]) [nmol]	MLD (Periplaneta americana [5]) [nmol]	Activity (Periplaneta americana [6])	Activity (Periplaneta americana [7])	IC50 [8] [µM]	Ratio (Periplaneta americana [9])	Ratio (Periplaneta americana [10])	Ratio [11]
O=[N+]([O-])/N=C1\N(CC#CCN2CCN(Cc3ccc(Cl)nc3)/C2=N/[N+](=O)[O-])CCN1Cc1ccc(Cl)nc1	3.7	12	0.3								
O=[N+]([O-])/N=C1/N(CCCCCN2CCN(Cc3ccc(Cl)nc3)/C2=N/[N+](=O)[O-])CCN1Cc1ccc(Cl)nc1	3.9	24	0.16								
O=[N+]([O-])/N=C1/N(Cc2ccc(Cl)nc2)CCN1Cc1cccc(N2CCN(Cc3ccc(Cl)nc3)/C2=N\[N+](=O)[O-])c1	20	20	1								
O=[N+]([O-])/N=C1\N(CCCCCCN2CCN(Cc3ccc(Cl)nc3)/C2=N/[N+](=O)[O-])CCN1Cc1ccc(Cl)nc1	2.2	8	0.29	0.22	0.58	tde	tde	3.1	10	4	
O=[N+]([O-])/N=C1\N(Cc2ccc(N3CCN(Cc4ccc(Cl)nc4)/C3=N\[N+](=O)[O-])cc2)CCN1Cc1ccc(Cl)nc1	27	50	0.54	2.7	6.7				10	4	
O=[N+]([O-])/N=C1/N(CCCCCCCCCN2CCN(Cc3ccc(Cl)nc3)/C2=N/[N+](=O)[O-])CCN1Cc1ccc(Cl)nc1	2.8	16	0.17								
O=[N+]([O-])/N=C1/N(CCCOCCCN2CCN(Cc3ccc(Cl)nc3)/C2=N/[N+](=O)[O-])CCN1Cc1ccc(Cl)nc1	5.9	20	0.3	0.3	0.23			73	20	26	0.042
O=[N+]([O-])NC1=NCCN1Cc1ccc(Cl)nc1 [IMIDACLOPRID]								0.02			
O=[N+]([O-])/N=C1\N(C/C=C/CN2CCN(Cc3ccc(Cl)nc3)/C2=N/[N+](=O)[O-])CCN1Cc1ccc(Cl)nc1	30	20	1.5								
O=[N+]([O-])/N=C1\N(CCCCN2CCN(Cc3ccc(Cl)nc3)/C2=N/[N+](=O)[O-])CCN1Cc1ccc(Cl)nc1	11	2	6.5								
O=[N+]([O-])/N=C1/N(CCCN2CCN(Cc3ccc(Cl)nc3)/C2=N/[N+](=O)[O-])CCN1Cc1ccc(Cl)nc1	4.9	6	0.79								
O=[N+]([O-])/N=C1/N(CCCCCCCN2CCN(Cc3ccc(Cl)nc3)/C2=N/[N+](=O)[O-])CCN1Cc1ccc(Cl)nc1 [Heptamethylene 1,7-bis-imadacloprid]	2.8	13	0.22								
O=[N+]([O-])/N=C1\N(CCN2CCN(Cc3ccc(Cl)nc3)/C2=N/[N+](=O)[O-])CCN1Cc1ccc(Cl)nc1	8.3	8	1.1	2.2	8.3			110	4	1	0.028
O=[N+]([O-])/N=C1\NCCN1Cc1ccc(Cl)nc1 [IMIDACLOPRID]	2.5	36	0.07	0.19	0.78				13	3	160
O=[N+]([O-])/N=C1\N(CCCCCCCCN2CCN(Cc3ccc(Cl)nc3)/C2=N/[N+](=O)[O-])CCN1Cc1ccc(Cl)nc1	4.5	26	0.17								
O=[N+]([O-])/N=C1\N(CCCCCCCCCCN2CCN(Cc3ccc(Cl)nc3)/C2=N/[N+](=O)[O-])CCN1Cc1ccc(Cl)nc1	3.7	16	0.23	0.19	1.5			27	19	2	0.11
